Source: patent US7754741B2, “Pyridine derivatives as fungicidal compounds” (Bayer Cropscience S.A., priority 2003, dated 2010)

Key:
Alternaria brassicae = assay: In vivo test on Alternaria brassicae (leaf spot of crucifers); settings: Alternaria brassicae; dose 330 ppm; radish plants sprayed 24 hours before contamination; grading 6 to 7 days after contamination vs control plants; read-out: protection (good (at least 50%) to total)
Method: In Vivo Test on Alternaria brassicae (Leaf Spot of crucifers)
(§1) The active ingredient tested is prepared by potter homogenisation in a concentrated suspension type formulation at 100 g/l. This suspension is then diluted with water to obtain the desired active material concentration.
Radish plants (Pernot variety) in starter cups, sown on a 50/50 peat soil-pozzolana substrate and grown at 18-20° C., are treated at the cotyledon stage by spraying with the aqueous suspension described above.
(§2) Plants, used as controls, are treated with an aqueous solution not containing the active material.
After 24 hours, the plants are contaminated by spraying them with an aqueous suspension of Alternaria brassicae spores (40,000 spores per cm^3). The spores are collected from a 12-13-day-old culture.
The contaminated radish plants are incubated for 6-7 days at about 18° C., under a humid atmosphere.
Grading is carried out 6 to 7 days after the contamination, in comparison with the control plants.

[1] = test system: Erysiphe graminis f. sp. tritici; assay: In vivo test on Erysiphe graminis f. sp. tritici (wheat powdery mildew); settings: Blumeria graminis, wheat plants sprayed 24 hours before contamination, grading 7 to 14 days after contamination vs control plants, read-out: protection (good (at least 50%) to total)
Method: In Vivo Test on Erysiphe graminis f. sp. tritici (Wheat Powdery Mildew)
as §1
Wheat plants (Audace variety) in starter cups, sown on 50/50 peat soil-pozzolana substrate and grown at 12° C., are treated at the 1-leaf stage (10 cm tall) by spraying with the aqueous suspension described above.
as §2
After 24 hours, the plants are contaminated by dusting them with Erysiphe graminis f. sp. tritici spores, the dusting being carried out using diseased plants. Grading is carried out 7 to 14 days after the contamination, in comparison with the control plants.
Under these conditions, good (at least 50%) to total protection is observed at a dose of 330 ppm with the following compounds: A-4, B-4, B-8, C-2, C-3, C-12, D-4, F-1, H-1, H-2, H-4, H-20, I-3, J-1, J-2, J-3, J-19, J-20, J-31, J-37, J-40, J-55, J-57, J-58, J-59, J-61, K-1, M-5, M-6, R-1, R-10, R-26, R-29, V-7.

Botrytis cinerea = assay: In vivo test on Botrytis cinerea (cucumber grey mould); settings: Botrytis cinerea; dose 330 ppm; cucumber plants sprayed 24 hours before contamination; grading 5/7 days after contamination vs control plants; read-out: protection (good (at least 50%) to total)
Method: In Vivo Test on Botrytis cinerea (Cucumber Grey Mould)
as §1
(§3) Cucumber plants (Marketer variety) in starter cups, sown on a 50/50 peat soil-pozzolana substrate and grown at 18-20° C., are treated at the cotyledon Z11 stage by spraying with the aqueous suspension described above. Plants, used as controls, are treated with an aqueous solution not containing the active material.
After 24 hours, the plants are contaminated by depositing drops of an aqueous suspension of Botrytis cinerea spores (150,000 spores per ml) on upper surface of the leaves. The spores are collected from a 15-day-old culture and are suspended in a nutrient solution composed of: • 20 g/L of gelatin • 50 g/L of cane sugar • 2 g/L of NH4NO3 • 1 g/L of KH2PO4
The contaminated cucumber plants are settled for 5/7 days in a climatic room at 15-11° C. (day/night) and at 80% relative humidity.
Grading is carried out 5/7 days after the contamination, in comparison with the control plants. Under these conditions, good (at least 50%) to total protection is observed at a dose of 330 ppm with the following compounds :B-7, B-8, B-13, B-14, C-3, C-12, C-13, C-14, C-15, C-16, D-4, D-5, E-4, H-1, H-2, H-4, H-7, H-9, H-22, J-1, J-2, J-3, J-19, J-31, J-32, J-33, J-34, J-35, J-37, J-39, J-43, J-44, R-1, R-10, R-23, R-24, R-26, R-31, V-1, V-8.

Pyrenophora teres = assay: In vivo test on Pyrenophora teres (barley net blotch); settings: Pyrenophora teres, 288 h; dose 330 ppm; barley plants sprayed 24 hours before contamination; grading 12 days after contamination vs control plants; read-out: protection (good (at least 50%) to total)
Method: In Vivo Test on Pyrenophora teres (Barley Net Blotch)
as §1
as §3, with “Barley” for “Cucumber”, “(Express” for “(Marketer”, “12°” for “18-20°”, “1-leaf” for “cotyledon Z11”, “stage (10 cm tall)” for “stage”
After 24 hours, the plants are contaminated by spraying them with an aqueous suspension of Pyrenophora teres spores (12,000 spores per ml). The spores are collected from a 12-day-old culture The contaminated barley plants are incubated for 24 hours at about 20° C. and at 100% relative humidity, and then for 12 days at 80% relative humidity.

O=C(NCCc1ncc(C(F)(F)F)cc1Cl)c1sccc1Cl [Compound C-2]
pest or weed control at 330 ppm (Alternaria brassicae): ≥ 50%
pest or weed control at 330 ppm [1]: ≥ 50%

Cc1cc(C(=O)NCCc2ncc(C(F)(F)F)cc2Cl)c(C(F)(F)F)o1 [Compound B-8]
pest or weed control at 330 ppm (Alternaria brassicae): ≥ 50%
pest or weed control at 330 ppm (Botrytis cinerea): ≥ 50%
pest or weed control at 330 ppm [1]: ≥ 50%
pest or weed control at 330 ppm (Pyrenophora teres): ≥ 50%

O=C(NCCc1ncc(C(F)(F)F)cc1Cl)c1occc1Br [Compound A-4]
pest or weed control at 330 ppm (Alternaria brassicae): ≥ 50%
pest or weed control at 330 ppm [1]: ≥ 50%
pest or weed control at 330 ppm (Pyrenophora teres): ≥ 50%

O=C(NCCc1ncc(Cl)cc1Br)c1sccc1I [Compound C-16]
pest or weed control at 330 ppm (Alternaria brassicae): ≥ 50%
pest or weed control at 330 ppm (Botrytis cinerea): ≥ 50%
pest or weed control at 330 ppm (Pyrenophora teres): ≥ 50%

Cc1nn(C)cc1C(=O)NCCc1ncc(C(F)(F)F)cc1Cl [Compound J-2]
pest or weed control at 330 ppm (Alternaria brassicae): ≥ 50%
pest or weed control at 330 ppm (Botrytis cinerea): ≥ 50%
pest or weed control at 330 ppm [1]: ≥ 50%
pest or weed control at 330 ppm (Pyrenophora teres): ≥ 50%

Cc1cc(C(=O)NCCc2ncc(C(F)(F)F)cc2Cl)c(C)o1 [Compound B-7]
pest or weed control at 330 ppm (Alternaria brassicae): ≥ 50%
pest or weed control at 330 ppm (Botrytis cinerea): ≥ 50%
pest or weed control at 330 ppm (Pyrenophora teres): ≥ 50%

Cn1cc(C(=O)NCCc2nc(Cl)c(Cl)cc2Cl)c(C(F)F)n1 [Compound J-34]
pest or weed control at 330 ppm (Botrytis cinerea): ≥ 50%
pest or weed control at 330 ppm (Pyrenophora teres): ≥ 50%

Cn1nc(C(=O)NCCc2ncc(C(F)(F)F)cc2Cl)c(Br)c1[N+](=O)[O-] [Compound I-3]
pest or weed control at 330 ppm (Alternaria brassicae): ≥ 50%
pest or weed control at 330 ppm [1]: ≥ 50%
pest or weed control at 330 ppm (Pyrenophora teres): ≥ 50%

CON=C(C)c1cnc(CCNC(=O)c2cccnc2Cl)c(Cl)c1 [Compound R-23]
pest or weed control at 330 ppm (Alternaria brassicae): ≥ 50%
pest or weed control at 330 ppm (Botrytis cinerea): ≥ 50%
pest or weed control at 330 ppm (Pyrenophora teres): ≥ 50%

Cn1cc(C(=O)NCCc2ncc(C(F)(F)F)cc2Cl)c(C(F)F)n1 [Compound J-3]
pest or weed control at 330 ppm (Alternaria brassicae): ≥ 50%
pest or weed control at 330 ppm (Botrytis cinerea): ≥ 50%
pest or weed control at 330 ppm [1]: ≥ 50%
pest or weed control at 330 ppm (Pyrenophora teres): ≥ 50%

Cn1cc(C(=O)NCCc2ncc(C(F)(F)F)cc2Cl)c(I)n1 [Compound J-58]
pest or weed control at 330 ppm [1]: ≥ 50%
pest or weed control at 330 ppm (Pyrenophora teres): ≥ 50%

O=C(NCCc1ncc(C(F)(F)F)cc1Cl)c1ccsc1I [Compound D-4]
pest or weed control at 330 ppm (Alternaria brassicae): ≥ 50%
pest or weed control at 330 ppm (Botrytis cinerea): ≥ 50%
pest or weed control at 330 ppm [1]: ≥ 50%
pest or weed control at 330 ppm (Pyrenophora teres): ≥ 50%

Cc1c(F)c(F)nc(CCNC(=O)c2cn(C)nc2C(F)F)c1F [Compound J-40]
pest or weed control at 330 ppm [1]: ≥ 50%
pest or weed control at 330 ppm (Pyrenophora teres): ≥ 50%

Cc1ccsc1C(=O)NCCc1ncc(C(F)(F)F)cc1Cl [Compound C-3]
pest or weed control at 330 ppm (Alternaria brassicae): ≥ 50%
pest or weed control at 330 ppm (Botrytis cinerea): ≥ 50%
pest or weed control at 330 ppm [1]: ≥ 50%
pest or weed control at 330 ppm (Pyrenophora teres): ≥ 50%

Cn1cc(C(=O)NCCc2nc(Cl)c(Cl)cc2Cl)c(C(F)(F)F)n1 [Compound J-20]
pest or weed control at 330 ppm [1]: ≥ 50%
pest or weed control at 330 ppm (Pyrenophora teres): ≥ 50%

Cc1cc(Br)cnc1CCNC(=O)c1cn(C)nc1C(F)F [Compound J-32]
pest or weed control at 330 ppm (Alternaria brassicae): ≥ 50%
pest or weed control at 330 ppm (Botrytis cinerea): ≥ 50%
pest or weed control at 330 ppm (Pyrenophora teres): ≥ 50%

O=C(NCCc1ncc(Cl)cc1Cl)c1sccc1I [Compound C-13]
pest or weed control at 330 ppm (Alternaria brassicae): ≥ 50%
pest or weed control at 330 ppm (Botrytis cinerea): ≥ 50%
pest or weed control at 330 ppm (Pyrenophora teres): ≥ 50%

Cc1onc(-c2c(Cl)cccc2Cl)c1C(=O)NCCc1ncc(C(F)(F)F)cc1Cl [Compound M-5]
pest or weed control at 330 ppm (Alternaria brassicae): ≥ 50%
pest or weed control at 330 ppm [1]: ≥ 50%

CC1=[SH]C(C(=O)NCCc2ncc(Cl)cc2Cl)=C(C(F)(F)F)N1 [Compound H-4]
pest or weed control at 330 ppm (Alternaria brassicae): ≥ 50%
pest or weed control at 330 ppm (Botrytis cinerea): ≥ 50%
pest or weed control at 330 ppm [1]: ≥ 50%
pest or weed control at 330 ppm (Pyrenophora teres): ≥ 50%

Cc1cc(C(=O)NCCc2ncc(C(F)(F)F)cc2Cl)n(C(C)(C)C)n1 [Compound K-1]
pest or weed control at 330 ppm [1]: ≥ 50%

Cn1cc(C(=O)NCCc2ncc(C(F)(F)F)cc2Cl)c(Cl)n1 [Compound J-57]
pest or weed control at 330 ppm [1]: ≥ 50%
pest or weed control at 330 ppm (Pyrenophora teres): ≥ 50%

Cc1nn(C)cc1C(=O)NCCc1ncc(Cl)cc1Cl [Compound J-19]
pest or weed control at 330 ppm (Alternaria brassicae): ≥ 50%
pest or weed control at 330 ppm (Botrytis cinerea): ≥ 50%
pest or weed control at 330 ppm [1]: ≥ 50%
pest or weed control at 330 ppm (Pyrenophora teres): ≥ 50%

Cc1onc(-c2c(F)cccc2Cl)c1C(=O)NCCc1ncc(C(F)(F)F)cc1Cl [Compound M-6]
pest or weed control at 330 ppm (Alternaria brassicae): ≥ 50%
pest or weed control at 330 ppm [1]: ≥ 50%

Cc1occc1C(=O)NCCc1ncc(Cl)cc1Cl [Compound B-13]
pest or weed control at 330 ppm (Alternaria brassicae): ≥ 50%
pest or weed control at 330 ppm (Botrytis cinerea): ≥ 50%
pest or weed control at 330 ppm (Pyrenophora teres): ≥ 50%

Cc1nn(C)c(F)c1C(=O)NCCc1ncc(C(F)(F)F)cc1Cl [Compound J-1]
pest or weed control at 330 ppm (Alternaria brassicae): ≥ 50%
pest or weed control at 330 ppm (Botrytis cinerea): ≥ 50%
pest or weed control at 330 ppm [1]: ≥ 50%
pest or weed control at 330 ppm (Pyrenophora teres): ≥ 50%

O=C(NCCc1ncc(C(F)(F)F)cc1Cl)c1cccnc1Br [Compound R-26]
pest or weed control at 330 ppm (Alternaria brassicae): ≥ 50%
pest or weed control at 330 ppm (Botrytis cinerea): ≥ 50%
pest or weed control at 330 ppm [1]: ≥ 50%
pest or weed control at 330 ppm (Pyrenophora teres): ≥ 50%

Cc1cscc1C(=O)NCCc1ncc(C(F)(F)F)cc1Cl [Compound D-5]
pest or weed control at 330 ppm (Alternaria brassicae): ≥ 50%
pest or weed control at 330 ppm (Botrytis cinerea): ≥ 50%
pest or weed control at 330 ppm (Pyrenophora teres): ≥ 50%

O=C(NCCc1ncc(C(F)(F)F)cc1Cl)c1ccoc1I [Compound B-14]
pest or weed control at 330 ppm (Alternaria brassicae): ≥ 50%
pest or weed control at 330 ppm (Botrytis cinerea): ≥ 50%
pest or weed control at 330 ppm (Pyrenophora teres): ≥ 50%

Cc1ncccc1C(=O)NCCc1ncc(C(F)(F)F)cc1Cl [Compound R-10]
pest or weed control at 330 ppm (Alternaria brassicae): ≥ 50%
pest or weed control at 330 ppm (Botrytis cinerea): ≥ 50%
pest or weed control at 330 ppm [1]: ≥ 50%
pest or weed control at 330 ppm (Pyrenophora teres): ≥ 50%

Cn1cc(C(=O)NCCc2ncc(Cl)cc2Br)c(C(F)F)n1 [Compound J-39]
pest or weed control at 330 ppm (Alternaria brassicae): ≥ 50%
pest or weed control at 330 ppm (Botrytis cinerea): ≥ 50%
pest or weed control at 330 ppm (Pyrenophora teres): ≥ 50%

Cn1cccc1C(=O)NCCc1ncc(C(F)(F)F)cc1Cl [Compound F-1]
pest or weed control at 330 ppm [1]: ≥ 50%

Cn1cc(C(=O)NCCc2ncc(Cl)cc2F)c(C(F)F)n1 [Compound J-33]
pest or weed control at 330 ppm (Alternaria brassicae): ≥ 50%
pest or weed control at 330 ppm (Botrytis cinerea): ≥ 50%
pest or weed control at 330 ppm (Pyrenophora teres): ≥ 50%

Cc1oc(C(C)(C)C)cc1C(=O)NCCc1ncc(C(F)(F)F)cc1Cl [Compound B-4]
pest or weed control at 330 ppm (Alternaria brassicae): ≥ 50%
pest or weed control at 330 ppm [1]: ≥ 50%

O=C(NCCc1ncc(C(F)(F)F)cc1Cl)c1cccnc1Cl [Compound R-1]
pest or weed control at 330 ppm (Alternaria brassicae): ≥ 50%
pest or weed control at 330 ppm (Botrytis cinerea): ≥ 50%
pest or weed control at 330 ppm [1]: ≥ 50%
pest or weed control at 330 ppm (Pyrenophora teres): ≥ 50%

O=C(NCCc1ncc(C(F)(F)F)cc1Cl)c1sccc1I [Compound C-12]
pest or weed control at 330 ppm (Alternaria brassicae): ≥ 50%
pest or weed control at 330 ppm (Botrytis cinerea): ≥ 50%
pest or weed control at 330 ppm [1]: ≥ 50%
pest or weed control at 330 ppm (Pyrenophora teres): ≥ 50%
